Results published in USRE37770E1, “Treatment of skin conditions by use of PPARα activators” (The Regents of the University of California, priority 1997, dated 2002).

Experiments:
[1] = test system: Skin explants from gestational day 17 rats; assay: Light and electron microscopy of fetal rat skin explants (epidermal maturation); type: cell-based
Description: Samples for light microscopy were fixed in modified Karnovsky's solution, plastic-embedded, and 0.5 μm sections were stained with toluidine. Samples for electron microscopy were minced into 1 mm^3 pieces, fixed in modified Karnovsky's fixative, and processed. Sections were stained with uranyl acetate and lead citrate, post-fixed in ruthenium tetroxide, and examined using a Zeiss 10A electron microscope.
Explants incubated in various media woe examined by light microscopy. The incubation di included control medium (containing no activators) and various media individually containing 300 μM clofibrate, 100 μM juvenile hormone III, 300 μM oleic acid, 30 μM linoleic acid, 50 μM farnesol, and various concentrations of 9-cis-retinoic acid, all-trans-retinoic acid, and 1,25-dihydroxy vitamin D3.
Observations were then made of the ultrastructural maturation of the outer epidermis in explants that had been incubated in the various media and then post-fixed in ruthenium tetroxide. Media identical to those of the preceding paragraph were used, excluding the retinoic acid-containing and 1,25-dihydroxy vitamin D3-containing media.

fetal rodent skin = settings: earlier studies (Hanley et al. 1996); cited from earlier work
[2] = test system: full-thickness flank skin from the fetal rats; assay: Transepidermal water loss (TEWL) of fetal rat skin explants in organ culture (barrier function); type: cell-based, Sprague-Dawley rats
Description: Timed pregnant Sprague-Dawley rats (plug date=day 0) were obtained from Simonsen (Gilroy, Calif., USA) and fetuses were delivered prematurely on day 17. Transepidermal water loss (TEWL) was measured in excised full-thickness flank skin from the fetal rats after various times in culture. The skin explants were placed dermis-side down onto collagen membrane inserts (3μ pore size) in medium M-199 (serum-free), and submerged, and the lateral edges and dermal surface were sealed with petrolatum, such that water loss occurred only through the epidermal surface. Explant samples were weighed hourly, at ambient temperature (24±3° C.) and humidity (40±5%), over 6 hours using a Cahn balance (sensitivity 0.001 mg). TEWL levels are reported as milligrams of water lost per square millimeter of epidermal surface per hour. Fatty acids and clofibrate (p-chlorophenoxyisobutyric acid) were added to the medium bound to 0.5% (weight/volume) bovine serum albumin (BSA). Isoprenoids and oxysterols were added in ethanol (≦0.1%) and juvenile hormone III was added as a dimethylsulfoxide (DMSO) solution (≦0.1%). Control explants were incubated in the presence of the appropriate vehicle (≦0.1% DMSO or ethanol, and/or ≦0.5% BSA). Skin explants from gestational day 17 rats were incubated in the presence of either various activators or vehicle, and transepidermal water loss was measured after two days. The activators and the concentrations at which they were used were as follows: […]

β-Glucocerebrosidase = β-Glucocerebrosidase activity in epidermis of treated fetal rat skin explants; type: cell-based, rats; settings: clofibrate (300 μM), juvenile hormone III (100 μ), mean of five ± SEM
Description: (§1) Epidermis was separated from dermis after incubation in 10 mM ethylenediamine tetraacetic acid (EDTA) in Ca^++- and Mg^++-free phosphate-buffered saline (PBS), pH 7.4, at 37° C. for 30-40 minutes. The tissues were then minced, and homogenized on ice (three times at 15 seconds each with a Polytron homogenizer, followed by sonication twice at ten seconds each at 35% power) in either PBS containing 0.1 mM phenylmethylsulfonyl fluoride (PMSF) and 0.1% Triton X-100 (for β-glucocerebrosidase) or in 10 mM Tris (PH 7.5) containing 0.15 M sucrose and 2 mM EDTA (for steroid sulfatase). β-Glucocerebrosidase activity was measured in the supernatant following centrifugation at 10,000×g for fifteen minutes at 4° C. Steroid sulfatase activity was measured in the microsomal fraction resulting from a […] centrifugation (10 minutes, 4° C.) followed by 60 minutes of 100,000×g ultracentrifugation at 4° C. Protein content was measured by conventional techniques.
β-Glucocerebrosidase) activity was assayed using the synthetic substrate 4-methylumbelliferyl β-D-glucoside (4-MUG). The assays were performed in 5 mM sodium taurocholate in citrate-phosphate buffer (pH 5.6) with 0.5 mM 4-MUG for sixty minutes at 37° C., with a final assay volume of 100 μL, and protein concentration of 1-2 mg/mL. The reaction was terminated with 2 mL of carbonate-bicarbonate buffer (pH 10.5). The fluorescence was then measured at […] (excitation) and 450 λ (emission) and compared with a standard 4-methylumbelliferone (4-MU) curve.
(§2) Skin explants from 17-day fetal rats were incubated for 24 or 48 hours in media individually containing clofibrate (300 μM) and juvenile hormone III […], and control media. Enzyme activity was measured and the results are presented in Table I as the mean values of five determinations±SEM (standard error of the mean). All p values are ≦0.005 compared with controls of the same time period.

Steroid Sulfatase = assay: Steroid sulfatase activity in epidermis of treated fetal rat skin explants; type: cell-based, rats; settings: clofibrate (300 μM), juvenile hormone III (100 μ), mean of five ± SEM
Description: as §1
Steroid sulfatase activity was measured by incubating 100 μg of microsomal protein in 0.1 M Tris containing 5.6 mM glucose (pH 7.4) with 15 μM, (^3H) dihydroepiandrosterone sulfate (DHEAS) (15 μCi) in a final volume of 1.1 mL The product, (^3H) DHEA, was extracted with benzene and an aliquot counted by scintillation spectrophotometry.
as §2

[3] = test system: Normal human keratinocytes; assay: Cornified envelope formation (35S incorporation) in keratinocytes; type: cell-based; settings: 15 μM, 0.03 mM calcium, 48-hour

## C=C1/C(=C\C=C2/CCC[C@]3(C)[C@@H]([C@H](C)CCCC(C)(C)O)CC[C@@H]23)C[C@@H](O)C[C@@H]1O [1,25-dihydroxyvitamin D3]
[1]; various concentrations
  light microscopy of the epidermis: did not exhibit a distinct stratum corneum
Fetal rodent skin
  acceleration of the appearance of a mature barrier in fetal rodent skin: had no effect

## CC1=C(/C=C/C(C)=C/C=C/C(C)=C/C(=O)O)C(C)(C)CCC1 [all-trans-retinoic acid]
[1]; various concentrations
  light microscopy of the epidermis: did not exhibit a distinct stratum corneum
Fetal rodent skin
  acceleration of the appearance of a mature barrier in fetal rodent skin: had no effect

## COC(=O)C=C(C)CCC=C(C)CCC1OC1(C)C (stereo not drawn) [juvenile hormone III, 7-methyl-9-(3,3-dimethyloxiranyl)-3-methyl-2,6-nonadienoic acid methyl ester]
[2]; 100 μM, two days
  effect on TEWL / barrier formation: significantly accelerated barrier formation
[2]; Rattus norvegicus, dose response, FIGS. 4a-4c, read-out: concentration of half-maximal effect on barrier development (TEWL)
  EC50: ~75 µM
[2]; dose response, FIGS. 4a-4c
  concentration of maximal effect on barrier development (TEWL): approximately 250 μM
[1]; 100 μM, 48 hours
  light microscopy of the epidermis: had both a multi-layered stratum granulosum and a stratum corneum
β-Glucocerebrosidase; 24-Hour Incubation
  β-Glucocerebrosidase Activity: 2.89 ± 0.20 nmol/min/mg
β-Glucocerebrosidase; 48-Hour Incubation
  β-Glucocerebrosidase Activity: 5.20 ± 0.62 nmol/min/mg
Steroid Sulfatase; 24-Hour Incubation
  Steroid Sulfatase Activity: 12.55 ± 1.25 pmol/h/mg
Steroid Sulfatase; 48-Hour Incubation
  Steroid Sulfatase Activity: 18.23 ± 2.35 pmol/h/mg
[3]
  rate of cornified envelope formation: substantial increases in the rate of cornified envelope formation

## CC1=C(/C=C/C(C)=C\C=C\C(C)=C\C(=O)O)C(C)(C)CCC1 [9-cis-retinoic acid]
[1]; various concentrations
  light microscopy of the epidermis: did not exhibit a distinct stratum corneum
Fetal rodent skin
  acceleration of the appearance of a mature barrier in fetal rodent skin: had no effect
